For data set [1], the system named is MCF-7 human breast cancer cells. In words: Inhibition of MCF-7 cell proliferation (MTT). The format is cell-based. To be noted: 100 μg/ml, 48 h, 5×10^5 cells/ml. How it is done:
(§1) Cells were seeded in 6 (1 ml/well), 24 (0.5 ml/well) or 96 (0.1 ml/well) well flat-bottom microplates and were maintained at 37° C. in a 5% CO2 atmosphere. Unless stated otherwise, 2.5×10^5 cells/ml were incubated with 0 μg/ml (control) and 100 μg/ml (treated) of 2 to 45 base sequences containing A, C, G and T for 48 h.
(§2) Cell proliferation was measured using dimethylthiazol-diphenyl-tetrazolium (MTT) reduction (Mosman et al. J. Immunol. Methods 65:55, 1983). MTT was measured at a wavelength of 570 nm using a multiplate spectrophotometer reader (ELX800, Bio-TEK Instruments Inc., Winooski, Vt.).
MCF-7 human breast cancer cells are a caspase 3 negative, estrogen-dependent human solid tumor model. MCF-7 cells (5×10^5 cells/ml) were incubated with 3 and 6 base GT sequences (Table 7).

For data set [2], the system named is LNCaP human prostate cancer cells. Briefly: Inhibition of LNCaP cell proliferation (MTT). The format is cell-based. To be noted: 100 μg/ml, 48 h, 5×10^5 cells/ml. As for the experimental part:
as §1, §2
LNCaP prostate cancer cells are a TGF-beta 1 receptor negative, […], metastatic human solid tumor model. LNCaP cells (5×10^5 cells/ml) were incubated with 6 base GT sequences (Table 9).

Data set [3] relates to Jurkat human leukemia T cells. In words: Inhibition of Jurkat human leukemia T cell proliferation (MTT reduction). The format is cell-based. To be noted: 100 μg/ml sequence, 48 h, 2.5×10^5 cells/ml. In short, it runs like this: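 Jurkat cells at 2.5×10^5 cells/ml exposed to 100 μg/ml of 2–45-base A/C/G/T sequences (0 μg/ml control) for 48 h, 37° C, 5% CO2. Viability by MTT reduction read at 570 nm.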

Data set [4] deals with THP-1 human acute monocytic leukemia cells. Briefly: Cytokine production by THP-1 cells (ELISA). The format is cell-based. To be noted: THP-1, 1×10^6 cells, 100 μg/ml, 48 h; for ↑ IL-12 (fold increase treated vs control cells): p70 complex and free p40. In outline:
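1×10^6 cells exposed to 100 μg/ml of each oligonucleotide sequence for 48 h at 37° C in 5% CO2, unless stated otherwise. Cytokines quantified in culture supernatant by ELISA, IL-12 assay detecting both p70 and free p40; values are fold increase over untreated control cells.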

Data set [5] deals with caspase 3 and caspase 7. Briefly: Caspase 3 and caspase 7 activation by peptide-sequence constructs in Jurkat cells. The format is cell-based, human. To be noted: 72 h, present-tense example. How it is done: Reactive carboxylate and reactive amine groups are deprotected subsequent to conjugation,
To determine caspase activation, control and treated cells are washed, fixed, permeabilized and incubated with an FITC-conjugated antibody that recognizes the active form of the caspase (Pharmingen, San Diego, Calif.) using the conditions recommended by the manufacturer. Fluorescence associated with active caspase 3 is analyzed by flow cytometry on a FACSCALIBUR using the program CellQUEST (Becton Dickinson). Alternatively, caspase activation is determined colorimetrically using an assay based on the cleavage of a caspase-specific peptide conjugated to the color reporter molecule p-nitroanilide, which can be quantitated spectrophotometrically at a wavelength of 405 nm.
Jurkat human leukemia T cells are incubated for 72 h with NH2—YVAD-CO-GG(GT)GG, NH2-DEVD-CO-GG(GT)GG, NH2—EGD-COO-GG(GT)GG, NH2-YVAD-CO-[…], NH2-DVED-CO-[…] and NH2—IEGD-CO-[…]. Caspase 3 and caspase 7 activation are determined.

The subject of data set [6] is Jurkat human leukemia T cells. In words: NuMA release into supernatant (ELISA). The format is cell-based. Particulars: Jurkat, 50 μM sequence. As for the experimental part: (§3) The redistribution of phosphatidylserine in the plasma membrane during apoptosis was measured by flow cytometry using FITC-conjugated annexin V (BD Pharmingen, San Diego, Calif.). NuMA release into the supernatant was determined using a commercial ELISA kit (Oncogen/Calbiochem, Cambridge, Mass.).
Jurkat human leukemia T cells were incubated with 50 μM of 3, 4, 5, 6 and 7 GT base sequences, a 5 base ACGT sequence, 6 base AG, GG, AGT and CGT sequences and a 7 base GG sequence.
Jurkat human leukemia T cells (1×10^6/ml) were incubated with 6 and 27 GT base sequences (Table 32). NuMA was determined as in Example 23.
Jurkat human cell leukemia T cells were incubated for 24 h with 6 base GT SEQ ID NO:25, complementary 6 base AC SEQ ID NO:79, and 6 base GT SEQ ID NO:25+6 base AC SEQ ID NO:79. GT SEQ ID NO:25 and AC SEQ ID NO:79 were hybridized by mixing the sequences (1:1) and heating for 10 minutes at 65° C. As controls, GT SEQ ID NO:25 and AC SEQ ID NO:79 were heated for 10 minutes at 65° C. (Table 33). Apoptosis was evaluated as in Example 23.
In general terms: In an ELISA, binding on a coated surface is turned into a signal by an enzyme label.

In data set [7] the test system is PC-3 human prostate cancer cells. In words: Inhibition of PC-3 cell proliferation (MTT). Format: cell-based. To be noted: 100 μg/ml, 48 h, 5×10^5 cells/ml. How it is done: as §1, §2
PC-3 prostate cancer cells are a p53 mutated, androgen-independent human solid tumor model. PC-3 cells (5×10^5 cells/ml) were incubated with 3 and 6 base GT sequences (Table 8).

The test system of data set [8] is Jurkat human leukemia T cells. In words: Apoptosis by phosphatidylserine/annexin V-FITC flow cytometry. Particulars: 50 μM sequence. The format is cell-based. How it is done: as §3
Jurkat human leukemia T cells were incubated with 50 μM of 3, 4, 5, 6 and 7 GT base sequences, a 5 base ACGT sequence, 6 base AG, GG, AGT and CGT sequences and a 7 base GG sequence. […]
Jurkat human leukemia T cells were incubated with GT-rich or AC-rich sequences derived from the murA gene of Mycobacterium phlei (GenBank: Accession Number X99776). Inhibition of proliferation was measured by the reduction of MTT as in Example 3, cell cycle arrest was detected by flow cytometry using propidium iodide as in Example 21 and apoptosis was evaluated by flow cytometry using annexin-V-FITC as in Example 23.
A general note: In flow cytometry, cells or beads pass a laser one at a time.

For data set [9], the system named is CF-51 canine mammary gland cancer cells. Briefly: Inhibition of CF-51 cell proliferation (MTT). The format is cell-based. Particulars: 100 μg/ml, 48 h, 5×10^5 cells/ml. As for the experimental part:
as §1, §2
(§4) D-17 canine osteosarcoma cells and CF-51 canine mammary gland cancer cells are solid tumor models. D-17 canine osteosarcoma cells (5×10^5 cells/ml) (Table 20) and CF-51 canine mammary gland cancer cells (5×10^5 cells/ml) (Table 21) were incubated with 6, 9, 17, 27 and 33 base GT-sequences and with a 15 base ACG sequence.

In data set [10] the test system is D-17 canine osteosarcoma cells. Briefly: Inhibition of D-17 cell proliferation (MTT). The format is cell-based. To be noted: 100 μg/ml, 48 h, 5×10^5 cells/ml. As for the experimental part: as §1, §2, §4

Regarding GGTGGG [SEQ ID NO:24 phosphorothioate], the “% INHIBITION of MCF-7 human breast cancer cell proliferation” value in data set [1] is recorded as 12%. Also, the “% INHIBITION of LNCaP human prostate cancer cell proliferation” value in [2] is −17%. The “% INHIBITION of Jurkat human leukemia T cell proliferation” value in data set [3] was determined as 6%. For the same substance, in data set [4], the “↑ IL-12 (fold increase treated vs control cells)” value was −0.1x.
The corresponding values for GTGTGT [SEQ ID NO:10 phosphorothioate] are 12%, −20%, 0% and −0.2x.
Consider NH2-DEVD-CO-GG(GT)GG [NH2-DEVD-CO-GT], for which, in data set [5], the “processing of inactive caspase 3 and caspase 7 to active forms” value (shortened to “processing”) was “induce processing of inactive caspase 3 to active caspase 3 and of inactive caspase 7 to active caspase 7”.
“NH2-DVED-CO-AACCACAAGCCCAAC [NH2-DVED-CO-ACG]”: the “processing” value in data set [5] was “do not induce processing of inactive pro-caspase 3 to active caspase 3 or of inactive caspase 7 to active caspase 7”.
The same measure, in the same setting: the same measure for “NH2-YVAD-CO-AACCACAAGCCCAAC [NH2—YVAD-CO-ACG]”: “do not induce processing of inactive pro-caspase 3 to active caspase 3 or of inactive caspase 7 to active caspase 7”; for NH2—EGD-COO-GG(GT)GG [NH2—IEGD-COO-GT]: “induce processing of inactive caspase 3 to active caspase 3 and of inactive caspase 7 to active caspase 7”.
On the same count and under the same terms, the same measure for “NH2—IEGD-CO-AACCACAAGCCCAAC [NH2—IEGD-CO-ACG]”: “do not induce processing of inactive pro-caspase 3 to active caspase 3 or of inactive caspase 7 to active caspase 7”.
Consider NH2—YVAD-CO-GG(GT)GG [NH2—YVAD-CO-GT], for which the “processing” value in data set [5] was “induce processing of inactive caspase 3 to active caspase 3 and of inactive caspase 7 to active caspase 7”.
“TGT (chemistry not given here) [SEQ ID NO:7]”: the “% INHIBITION of MCF-7 human breast cancer cell proliferation” value in data set [1] is reported as −6%. The “% NuMA released (treated vs untreated cells)” value in data set [6] was 35%. Also, the “% INHIBITION of PC-3 human prostate cancer cell proliferation” value in [7] is recorded as 8%. Moreover, in data set [3], the “% INHIBITION of Jurkat human leukemia T cell proliferation” value amounted to 22%. For the same substance, the “% of cells in apoptosis (positive for PS/A-V staining)” value in data set [8] was found to be 10%. Besides, the “↑ IL-6 (fold increase treated vs control cells)” value in data set [4] is reported as 2.7x.
Consider “TGTGTG [SEQ ID NO:9 phosphorothioate] (phosphorothioate backbone)”, for which, in [1], the “% INHIBITION of MCF-7 human breast cancer cell proliferation” value worked out at 6%. In addition, the “% INHIBITION of LNCaP human prostate cancer cell proliferation” value in data set [2] is reported as −16%. In addition, the “% INHIBITION of Jurkat human leukemia T cell proliferation” value in data set [3] was −17%. Besides, the “↑ IL-12 (fold increase treated vs control cells)” value in [4] is on record as −0.1x.
As for “TGTGTGTGTGTGTGTGTG (unmodified DNA) [SEQ ID NO:17]”, in [9], the “% INHIBITION of CF-51 canine mammary gland cancer cell proliferation” value is 8%. The “% INHIBITION of D-17 canine osteosarcoma cell proliferation” value in data set [10] turned out to be 8%. In addition, in data set [3], the “% INHIBITION of Jurkat human leukemia T cell proliferation” value was 56%. The “↑ IL-6 (fold increase treated vs control cells)” value in data set [4] was found to be 2.2x.
On to TTGTTT [SEQ ID NO:26 phosphorothioate], for which the “% INHIBITION of MCF-7 human breast cancer cell proliferation” value in [1] worked out at 6%. In addition, the “% INHIBITION of LNCaP human prostate cancer cell proliferation” value in data set [2] is recorded as −1%. In addition, the “% INHIBITION of Jurkat human leukemia T cell proliferation” value in [3] came to 0%. Moreover, in data set [4], the “↑ IL-12 (fold increase treated vs control cells)” value is −0.1x.
The corresponding values for “TTTGTT [SEQ ID NO:23 phosphorothioate] (phosphorothioate backbone)” are 8%, −11%, 4% and 0.1x.

(Values after patent US20070213291A1, “Therapeutically useful synthetic oligonucleotides” (priority 1999, published 2007).)
